{"source": "paper PMC12332266", "about": "(Frontiers in Pharmacology, 2025)", "key": {"[1]": {"tested_on": "hiPSC-CM (iCell Cardiomyocytes^2)", "assay": "RTCA CardioECR assessment (impedance and electrophysiology parameters)", "protocol": "(§1) Culture media change was performed every 2 days.\nAfter seeding on fibronectin-coated xCELLigence ePlates (Agilent Technologies, Inc. Santa Clara, CA, USA), iCell^2 CM were monitored continuously through impedance electrodes. The following impedance parameters were measured: Cell Index (CI, measure of cell “health” and monolayer integrity), beating rate (BR) and amplitude (CI Amplitude, magnitude of contraction). Electrophysiology-like parameters (Field Potential Duration (FPD), considered as a surrogate for QT in in vivo studies, and Spike Amplitude (SA), depolarization induced by Na^+ channel opening) were measured starting from day 4–6, following the monolayer formation. […] All RTCA CardioECR data were double normalized (DMSO control and the baseline) with no further statistical group comparison for the normalized parameters. The variability of the data within the treatment groups was assessed by standard deviation."}, "[2]": {"tested_on": "hiPSC-CM (iCell Cardiomyocytes^2)", "assay": "Intracellular miRNA expression by RT-qPCR in hiPSC-CM pellets after 72-hour treatment", "protocol": "as §1\nTotal RNA was extracted from hiPSC-CM using the miRNeasy 96 Kit (Qiagen, Hilden, Germany) following the manufacturer’s recommendations. After the extraction, RNA purity was assessed by NanoDrop™ 8000 Spectrophotometer (Thermo Fisher Scientific Inc.). 5–10 ng/μL of RNA per sample were reverse transcribed and pre-amplified by using the TaqMan™ Advanced miRNA cDNA Synthesis Kit (Thermo Fisher Scientific Inc.). The synthesized cDNA was used for RT-qPCR with selected TaqMan™ assays (Thermo Fischer Scientific Inc.). RT-qPCR was carried out following the Applied Biosciences TaqMan miRNA expression assay protocol on a ViiA7 instrument (Thermo Fisher Scientific, Inc.). […] Therefore, to maximize the number of drugs and concentrations, explored in the same study, we pooled the triplicates for intracellular profiling of miRNAs. Therefore, no statistical analysis was performed on the data of miRNA profiling in the pellets of hiPSC-CM.\nFollowing RTCA CardioECR assessment, hiPSC-CM cell pellets were collected, and total RNA was extracted and purified to investigate miRNAs upregulation by RT-qPCR. […] For the initial assessment of intracellular miRNAs in 12 different treatments, encompassing various drug classes, we used a panel of 17 miRNAs, which we selected from the publicly available data focusing mainly on in vitro models and structural cardiotoxicants (Supplementary Table S2)."}, "[3]": {"conditions": "ref extensive literature search, cited from earlier work"}}, "note": "Where two headings read alike, the source gives them in different places."}
{"smiles": "O=P1(N(CCCl)CCCl)NCCCO1", "note": "(stereo not shown) [Cyclophosphamide]", "values": [{"measurement": "Beating rate (BR) MEC", "setting": "[1]; hiPSC-CM, 72-hour treatment, lowest concentration causing at least 20% change from baseline", "result": "ND (ND – not detected, magnitude of change was lower than 20%)"}, {"measurement": "RTCA, MEC (BR)", "setting": "[1]; hiPSC-CM, change ≥20%, Table 2", "result": "ND (ND – not detected, magnitude of change was lower than 20% for CI/BR)"}, {"measurement": "RTCA, MEC (CI)", "setting": "[1]; hiPSC-CM, change ≥20%, Table 2", "result": "ND (ND – not detected, magnitude of change was lower than 20% for CI/BR)"}, {"measurement": "miRNAs hiPSC-CM pellet, MEC overall", "setting": "[2]", "result": "3 µM (96-5p, 182-5p, 185-3p, 208b-3p)"}, {"measurement": "miRNAs upregulated at the MEC overall (hiPSC-CM pellet)", "setting": "[2]", "result": "3 µM (96-5p, 182-5p, 185-3p, 208b-3p)"}, {"measurement": "Cmax total", "setting": "[3]; Supplementary Table 1", "result": 126000, "unit": "nM"}, {"measurement": "Cmax total", "setting": "[3]; Table 1", "result": 126000, "unit": "nM"}]}
{"smiles": "CC(C)C[C@H](NC(=O)[C@H](Cc1ccccc1)NC(=O)c1cnccn1)B(O)O", "note": "[Bortezomib]", "values": [{"measurement": "RTCA, MEC (CI)", "setting": "[1]; hiPSC-CM, change ≥20%, Table 2", "result": 0.03, "unit": "µM"}, {"measurement": "Beating Rate MEC", "setting": "[1]; human, 72 h", "result": 0.1, "unit": "µM"}, {"measurement": "Beating rate (BR) MEC", "setting": "[1]; human, 72 h", "result": 0.1, "unit": "µM"}, {"measurement": "Contractility Amplitude MEC", "setting": "[1]; human, 72 h", "result": 0.1, "unit": "µM"}, {"measurement": "Field Potential Duration MEC", "setting": "[1]; human, 72 h", "result": 0.1, "unit": "µM"}, {"measurement": "Spike Amplitude (SA) MEC", "setting": "[1]; human, 72 h", "result": 0.1, "unit": "µM"}, {"measurement": "miRNAs hiPSC-CM pellet, MEC overall", "setting": "[2]", "result": 0.01, "unit": "µM"}, {"measurement": "miRNAs upregulated at the MEC overall (hiPSC-CM pellet)", "setting": "[2]", "result": "miR-126-3p, miR-182-5p, miR-185-3p, miR-187-3p, miR-7-5p"}, {"measurement": "Cmax total", "setting": "[3]; Supplementary Table 1", "result": "140 to 2800", "unit": "nM"}, {"measurement": "Cmax total", "setting": "[3]; Table 1", "result": "140 to 2800", "unit": "nM"}]}
{"smiles": "N=C(N)c1ccc(OCCCCCOc2ccc(C(=N)N)cc2)cc1", "note": "[Pentamidine]", "values": [{"measurement": "Beating Rate MEC", "setting": "[1]; human, 72 h", "result": 3, "unit": "µM"}, {"measurement": "Beating rate (BR) MEC", "setting": "[1]; human, 72 h", "result": 3, "unit": "µM"}, {"measurement": "Contractility Amplitude MEC", "setting": "[1]; human, 72 h", "result": 0.1, "unit": "µM"}, {"measurement": "Field Potential Duration MEC", "setting": "[1]; human, 72 h", "result": 1, "unit": "µM"}, {"measurement": "RTCA, MEC (BR)", "setting": "[1]; human, 72 h", "result": "3 µM (CI, BR)"}, {"measurement": "RTCA, MEC (CI)", "setting": "[1]; human, 72 h", "result": "3 µM (CI, BR)"}, {"measurement": "Spike Amplitude (SA) MEC", "setting": "[1]; human, 72 h", "result": 0.1, "unit": "µM"}, {"measurement": "miRNAs hiPSC-CM pellet, MEC overall", "setting": "[2]", "result": 0.1, "unit": "µM"}, {"measurement": "miRNAs upregulated at the MEC overall (hiPSC-CM pellet)", "setting": "[2]", "result": "miR-126-3p, miR-146b-5p, miR-208b-3p"}, {"measurement": "Cmax total", "setting": "[3]; Supplementary Table 1", "result": 1800, "unit": "nM"}, {"measurement": "Cmax total", "setting": "[3]; Table 1", "result": 1800, "unit": "nM"}]}
